Legend:
[1] = Pharmacokinetics of tramadol and O-desmethyl tramadol in SD rats with or without crizotinib; conditions: male, Sprague-Dawley, rat, serum, po, 20 mg/kg; for CL/F: CLz/F; for Vd/F: Vz/F; for half-life: t1/2z
From the text: Ultra-performance liquid chromatography-tandem mass spectrometry (UPLC-MS/MS) was utilized to measure the concentration of both tramadol and O-desmethyl tramadol. Separation was achieved using a Waters Acquity UPLC BEH C18 column, with dimensions of 2.1 mm × 50 mm and 1.7-µm particle size (Waters Corp., Milford, MA, USA), and quantitation was completed using a Waters XEVO TQD triple quadruple mass spectrometer. The mobile phase was composed of 0.1% formic acid (A) and ACN (B), and the gradient elution was carried out with a flow rate of 0.4 mL/min, following the procedure: 90–10% A (0–1.4 min), 10–90% A (1.4–1.5 min), and 90% A (1.5–2.0 min). Positive mode was used to detect the analytes with the following transitions: m/z 264.2 →58.0, m/z 250.2 →58.2, and m/z 285.0 →154.0 for tramadol, O-desmethyl tramadol, and diazepam (used as an internal standard, IS), respectively. The collision energy was 20 V for tramadol and O-desmethyl tramadol, and 25 V for diazepam. The standard for tramadol and O-desmethyl tramadol were dissolved in a small amount of DMSO (the concentration was 1 mg/mL) then diluted with acetonitrile (the final concentration was 1 ng/mL–1,000 ng/mL). Diazepam was diluted with methanol gradually to 500 ng/mL).
SD male rats (280 ± 15 g) were purchased from the Shanghai Animal Experimental Center. Before the experiment, the rats were kept in the animal room for two weeks with adequate water and food in order to adapt to the new environment. The room temperature was kept at 20–25 °C and the humidity was kept at 50%–65%. The change period of light and dark conditions was 12 h, which simulates the change of day and night. All animal experiments were approved by the Ethics Committee of Wenzhou Medical University (Approval number: xmsq2022-0621).
Generally speaking, only when at least five or more animals are involved in the experiment can the results be convincing. Thus, twenty SD rats were randomly divided into four groups with five animals per group: group A received a single dose of 20 mg/kg of tramadol; group B received a single dose of 45 mg/kg of crizotinib and 20 mg/kg of tramadol; group C received multiple doses of 0.5% carboxymethylcellulose sodium salt (CMC-Na) for 7 days and a single dose of 20 mg/kg of tramadol; and group D received multiple doses of 45 mg/kg of crizotinib for 7 days and a single dose of 20 mg/kg of tramadol. Prior to the experiment, all rats were fasted for 12 h but allowed free access to water. Once the experiment began, 0.5% CMC-Na and crizotinib were administered to groups C and D for 7 days, respectively, then to groups A and B on the last day of the experiment. After 30 min, all rats were orally administered 20 mg/kg of tramadol. Blood samples were collected from the tail vein at 5 min, 15 min, 30 min, 1 h, 2 h, 3 h, 4 h, 6 h, 8 h, 10 h, 12 h, and 24 h following tramadol administration. […] The samples were centrifuged at 2400 × g for 10 min to obtain serum. Each 50 µL serum was mixed with 150 µL ACN and 20 µL IS (500 ng/mL). After vortexing for 2 min and centrifugation at 16200 × g for 10 min at 4 °C, the supernatant was obtained, then we used UPLC-MS/MS analysis to detect the concentration of tramadol and O-desmethyl tramadol. After the experiment, all the animals were euthanized by 5% isoflurane inhalation anesthesia.
The Michaelis–Menten, IC50, and Lineweaver-Burk plots were generated using GraphPad Prism 6.0 software (GraphPad Software, Boston, MA, USA) with corresponding values for Km, IC50, and Ki (inhibition constant).

opioid receptors = system: opioid receptors; parameters: method as in earlier work; conditions: ref Allegaert et al., 2015, De La Gastine et al., 2022, Gillen et al., 2000, Gong et al., 2014; cited from earlier work
[2] = system: tramadol metabolism (O-desmethyl tramadol production) in rat liver microsomes; assay: Liver microsomal incubation assay: inhibition of tramadol metabolism (O-desmethyl tramadol production) in RLM; assay type: in vitro ADME; conditions: rat, pH 7.4, inhibitory rate on tramadol metabolism (production of O-desmethyl tramadol)
Description: All the substance meet the requirements for analysis.
To obtain the Michaelis kinetic parameters of tramadol in RLM and HLM, a 200 µL incubation system was established containing 2 µL RLM or HLM (0.2 mg/mL), 186 µL 1xPBS buffer (pH = 7.4), 2 µL tramadol (10–500 µM), and 10 µL NADPH (1 mM). The mixture was pre-incubated for 5 min without NADPH in a water bath shaking at 37 °C. Then, NADPH was added to initiate the reaction, and the mixture was incubated for another 30 min. The reaction was terminated by adding 400 µL of cold ACN and 20 µL of IS (500 ng/mL).
For drug-interaction screening, 100 µM of each drug (1.6 µL) was added to the system, and added PBS to the final volume of 200 uL. Tramadol concentration was set at 60 µM according to the Km.
To determine the half-maximal inhibitory concentration (IC50), the concentration of crizotinib was set at 0.01, 0.1, 1, 10, 25, 50, and 100 µM, while the concentration of tramadol was constant at 60 µM in RLM or 100 µM in HLM (according to Km).
All data were presented as mean ± SD (standard deviation).

[3] = Group A: single oral 20 mg/kg tramadol alone
[4] = Group B: 20 mg/kg tramadol with crizotinib 45 mg/kg single dose
[5] = Group C: 0.5% CMC-Na for 7 days, then single 20 mg/kg tramadol
[6] = Group D: crizotinib 45 mg/kg for 7 days, then single 20 mg/kg tramadol

Work on `CN(C)C[C@H]1CCCC[C@]1(O)c1cccc(O)c1` [O-desmethyl tramadol] yielded an AUC(0-t) [1, 3] of 934 ± 101 ng·h/mL, an AUC(0-t) [1, 4] of 928 ± 145 ng·h/mL and an AUC(0-t) [1, 5] of 1170 ng·h/mL. For the same compound, the AUC(0-t) [1, 6] was 1230 ng·h/mL, the AUC(0-inf) [1, 3] was 937 ± 101 ng·h/mL and the AUC(0-inf) [1, 4] was 981 ± 125 ng·h/mL. For the same compound, the AUC(0-inf) [1, 5] was 1180 ng·h/mL, the AUC(0-inf) [1, 6] was 1250 ng·h/mL and the CL/F [1, 3] was 360 mL/min/kg. For the same compound, the CL/F [1, 4] was 344 mL/min/kg, the CL/F [1, 5] was 288 mL/min/kg and the CL/F [1, 6] was 268 mL/min/kg. The Cmax [1, 3] was 229 ± 56.1 ng/mL, the Cmax [1, 4] was 172 ± 72.1 ng/mL and the Cmax [1, 5] was 292 ± 55.1 ng/mL. For the same compound, the Cmax [1, 6] was 182 ± 65.8 ng/mL, the Tmax [1, 3] was 0.8 ± 0.27 h and the Tmax [1, 4] was 0.7 ± 0.27 h. For the same compound, the Tmax [1, 5] was 1.2 ± 0.45 h, the Tmax [1, 6] was 0.9 ± 0.65 h and the Vd/F [1, 3] was 91.3 ± 12 L/kg. For the same compound, the Vd/F [1, 4] was 170 ± 112 L/kg, the Vd/F [1, 5] was 72.5 ± 25.4 L/kg and the Vd/F [1, 6] was 94.7 ± 26.4 L/kg. For the same compound, the half-life [1, 3] was 2.93 ± 0.09 h, the half-life [1, 4] was 5.68 ± 3.69 h and the half-life [1, 5] was 2.86 ± 0.71 h. For the same compound, the half-life [1, 6] was 4.06 ± 0.91 h and the “affinity relative to tramadol” value (opioid receptors) was “more than 700 times”.
For `COc1cccc(C2(O)CCCCC2CN(C)C)c1` (centres unmarked) [Tramadol, tramadol], the AUC(0-t) [1, 3] was 770 ± 169 ng·h/mL, the AUC(0-t) [1, 4] was 1120 ng·h/mL and the AUC(0-t) [1, 5] was 777 ± 233 ng·h/mL. It also gave an AUC(0-t) [1, 6] of 1650 ng·h/mL, an AUC(0-inf) [1, 3] of 786 ± 165 ng·h/mL and an AUC(0-inf) [1, 4] of 1220 ng·h/mL. It also gave an AUC(0-inf) [1, 5] of 790 ± 226 ng·h/mL, an AUC(0-inf) [1, 6] of 1650 ng·h/mL and a CL/F [1, 3] of 440 mL/min/kg. The CL/F [1, 4] was 298 mL/min/kg, the CL/F [1, 5] was 459 mL/min/kg and the CL/F [1, 6] was 214 mL/min/kg. It also gave a Cmax [1, 3] of 202 ± 82.7 ng/mL, a Cmax [1, 4] of 245 ± 38.3 ng/mL and a Cmax [1, 5] of 246 ± 57.6 ng/mL. It also gave a Cmax [1, 6] of 294 ± 85.2 ng/mL, a Tmax [1, 3] of 0.5 h and a Tmax [1, 4] of 0.6 ± 0.22 h. The Tmax [1, 5] was 1.6 ± 0.55 h, the Tmax [1, 6] was 0.9 ± 0.65 h and the Vd/F [1, 3] was 168 ± 88.2 L/kg. For the same compound, the Vd/F [1, 4] was 154 ± 96.5 L/kg, the Vd/F [1, 5] was 307 ± 309 L/kg and the Vd/F [1, 6] was 51.4 ± 19.1 L/kg. The half-life [1, 3] was 4.22 ± 1.68 h, the half-life [1, 4] was 6.91 ± 5.73 h and the half-life [1, 5] was 6.69 ± 5.14 h. The half-life [1, 6] was 2.74 ± 0.56 h.
Compound `CNC(=O)c1cc(Oc2ccc(NC(=O)Nc3ccc(Cl)c(C(F)(F)F)c3)c(F)c2)ccn1` [regorafenib] has an inhibition at 30 min, 100 µM [2] of 83.7%.
In the case of `CNC(=O)c1cc(Oc2ccc(NC(=O)Nc3ccc(Cl)c(C(F)(F)F)c3)cc2)ccn1` [sorafenib], the inhibition at 30 min, 100 µM [2] is reported as 96.7%.

From PMC11144398, “Crizotinib inhibits the metabolism of tramadol by non-competitive suppressing the activities of CYP2D1 and CYP3A2” (PeerJ, 2024)
